Laboratory results from patent publication US4283527A, “Erythromycylamine 11,12-carbonate and derivatives thereof” (Pfizer Inc., priority 1980, dated 1981).
Where two headings read alike, the source gives them in different places.

Key:
Enterobacter cloacea = details: strain 67B009
Streptococcus pneumoniae = details: strain 02J012
Bacillus subtilis = details: strain 06A001
Neisseria sicca = details: strain 66C000
Providentia retgerii = details: strain 77CA025
Providentia stuarti = details: strain 77A013
Streptococcus faecalis = details: strain 02A006
Pasteurella multocida = details: strain 59A001
Hemophilus influenzae = details: strain 54A036
Enterobacter aeruginosa = details: strain 67A040
Serratia marcescens = details: strain 63A017
Morgani morgansus = details: strain 97A001
Klebsiella oxytoca = details: strain 53D024

In the case of 9(S)-Erythromycylamine 11,12-Carbonate, the MIC (Streptococcus pyogenes; strain 02C040) was 0.78 µg/mL, the MIC (Streptococcus pyogenes; strain 02C203) was “< .02 µg/mL” and the MIC (Enterobacter cloacea) was over 50 µg/mL. The MIC (Escherichia coli; strain 51A125) was 25 µg/mL, the MIC (Escherichia coli; strain 51A129) was 25 µg/mL and the MIC (Escherichia coli; strain 51A266) was 25 µg/mL. For the same substance, the MIC (Escherichia coli; strain 51A470) was 0.78 µg/mL, the MIC (Streptococcus pneumoniae) was 0.10 µg/mL and the MIC (Bacillus subtilis) was 0.10 µg/mL. It also gave an MIC (Neisseria sicca) of 3.12 µg/mL, an MIC (Providentia retgerii) of over 50 µg/mL and an MIC (Providentia stuarti) of over 50 µg/mL. It also gave an MIC (Streptococcus faecalis) of 0.39 µg/mL, an MIC (Pasteurella multocida) of 0.39 µg/mL and an MIC (Hemophilus influenzae) of 3.12 µg/mL. It also gave an MIC (Klebsiella pneumoniae; strain 53A009) of 50 µg/mL, an MIC (Klebsiella pneumoniae; strain 53A031) of 50 µg/mL and an MIC (Staphylococcus epidermis; strain 01B037R, R = resistant to erythromycin) of over 50 µg/mL. For the same substance, the MIC (Staphylococcus epidermis; strain 01B111) was 0.20 µg/mL, the MIC (Staphylococcus epidermis; strain 01B126R, R = resistant to erythromycin) was over 50 µg/mL and the MIC (Staphylococcus aureus; strain 01A005) was 0.20 µg/mL. It also gave an MIC (Staphylococcus aureus; strain 01A052) of 0.20 µg/mL, an MIC (Staphylococcus aureus; strain 01A110R, R = resistant to erythromycin) of over 50 µg/mL and an MIC (Staphylococcus aureus; strain 01A400R, R = resistant to erythromycin) of 12.5 µg/mL. For the same substance, the MIC (Enterobacter aeruginosa) was 50 µg/mL, the MIC (Serratia marcescens) was over 50 µg/mL and the MIC (Pseudomonas aeruginosa; strain 52A104) was over 50 µg/mL. It also gave an MIC (Pseudomonas aeruginosa; strain 52A663) of over 50 µg/mL, an MIC (Morgani morgansus) of over 50 µg/mL and an MIC (Klebsiella oxytoca) of over 50 µg/mL.
